Reference: patent US20260226068A1, “IMIDAZOTRIAZINE IL-17A MODULATORS AND USES THEREOF” (DICE ALPHA, INC., priority 2023, published 2026)

Columns and labels:
[1] = target: T1, IL-17A/A (Homo sapiens, UniProt Q16552); assay: IL-17A/A HEK-Blue cell assay (SEAP reporter); format: cell-based; conditions: HEK-Blue IL-17A reporter cells, IL17A/A 5 ng/mL, 20 hours, SEAP read at A630; read-out: HEK-Blue IL17AA (IC50 for IL-17A/A inhibition)
T1 construct: purchased Genscript Z03228
T1 sequence (Q16552 24-155): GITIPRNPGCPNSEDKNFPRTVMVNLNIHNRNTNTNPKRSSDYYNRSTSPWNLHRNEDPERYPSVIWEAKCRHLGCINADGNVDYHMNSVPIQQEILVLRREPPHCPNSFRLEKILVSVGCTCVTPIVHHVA

[2] = target: T2, IL-17A/F (Homo sapiens, UniProt Q16552+Q96PD4); assay: IL-17A/F HEK-Blue cell assay (SEAP reporter); format: cell-based; conditions: HEK-Blue IL-17A reporter cells, IL17A/F 5 ng/mL, 20 hours, SEAP read at A630; read-out: HEK-Blue IL17AF (IC50 for IL-17A/F inhibition)
T2 construct: purchased R&D Systems
T2 sequence (Q16552 24-155): T1 sequence (Q16552 24-155)
T2 sequence (Q96PD4 31-163): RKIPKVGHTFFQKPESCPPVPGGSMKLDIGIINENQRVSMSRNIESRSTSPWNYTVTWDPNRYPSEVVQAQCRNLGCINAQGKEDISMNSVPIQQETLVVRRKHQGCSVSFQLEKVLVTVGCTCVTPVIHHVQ

IC50 [1] [nM] | IC50 [2] [nM] | Structure (SMILES)
< 100 | 100 to 1000 | CCn1nccc1C(=O)N[C@H](c1cn2nc(C[C@H]3C[C@H](C(F)(F)F)CNC3=O)c(C3CCOCC3)nc2n1)[C@H]1CC[C@H](C)CC1 [Compound 155, 1-ethyl-N-((1S)-((1r,4S)-4-methylcyclohexyl)(2-(((3R,5S)-2-oxo-5-(trifluoromethyl)piperidin-3-yl)methyl)-3-(tetrahydro-2H-pyran-4-yl)imidazo[1,2-b][1,2,4]triazin-6-yl)methyl)-1H-pyrazole-5-carboxamide]
< 100 | > 1000 | CCn1nccc1C(=O)N[C@H](c1cn2nc(C[C@H]3C[C@H](C(F)(F)F)CNC3=O)c(C(C)(C)C)nc2n1)C1CCC(F)(F)CC1 [Compound 156, N-((1S)-(4,4-difluorocyclohexyl)(3-(tert-butyl)-2-(((3R,5S)-2-oxo-5-(trifluoromethyl)piperidin-3-yl)methyl)imidazo[1,2-b][1,2,4]triazin-6-yl)methyl)-1-ethyl-1H-pyrazole-5-carboxamide]
< 100 | < 100 | CCn1nccc1C(=O)N[C@H](c1cn2nc(C[C@H]3C[C@@H](C(F)(F)F)CNC3=O)c(N3CCO[C@H](C)C3)nc2n1)[C@H]1CC[C@H](C)CC1 [Compound 157, 1-ethyl-N—((S)-((1r,4S)-4-methylcyclohexyl)(3-((R)-2-methylmorpholino)-2-(((3R,5R)-2-oxo-5-(trifluoromethyl)piperidin-3-yl)methyl)imidazo[1,2-b][1,2,4]triazin-6-yl)methyl)-1H-pyrazole-5-carboxamide]
< 100 | 100 to 1000 | CCn1nccc1C(=O)N[C@H](c1cn2nc(C[C@H]3C[C@@H](C(F)(F)F)CNC3=O)c(N3CCO[C@@H](C)C3)nc2n1)[C@H]1CC[C@H](C)CC1 [Compound 158, 1-ethyl-N—((S)-((1r,4S)-4-methylcyclohexyl)(3-((S)-2-methylmorpholino)-2-(((3R,5R)-2-oxo-5-(trifluoromethyl)piperidin-3-yl)methyl)imidazo[1,2-b][1,2,4]triazin-6-yl)methyl)-1H-pyrazole-5-carboxamide]
< 100 | > 1000 | CCn1nccc1C(=O)N[C@H](c1cn2nc(C[C@H]3C[C@H](C(F)(F)F)CNC3=O)c(C(C)(C)F)nc2n1)C1CCC(F)(F)CC1 [Compound 161, N-((1S)-(4,4-difluorocyclohexyl)(3-(2-fluoropropan-2-yl)-2-(((3R,5S)-2-oxo-5-(trifluoromethyl)piperidin-3-yl)methyl)imidazo[1,2-b][1,2,4]triazin-6-yl)methyl)-1-ethyl-1H-pyrazole-5-carboxamide]
< 100 | 100 to 1000 | CCn1nccc1C(=O)N[C@H](c1cn2nc(C[C@H]3C[C@@H](C(F)(F)F)CNC3=O)c(N3CCC4(CCOCC4)C3)nc2n1)C1CCC(F)(F)CC1 [Compound 162, N—((S)-(4,4-difluorocyclohexyl)(2-(((3R,5R)-2-oxo-5-(trifluoromethyl)piperidin-3-yl)methyl)-3-(8-oxa-2-azaspiro[4.5]decan-2-yl)imidazo[1,2-b][1,2,4]triazin-6-yl)methyl)-1-ethyl-1H-pyrazole-5-carboxamide]
< 100 | 100 to 1000 | CCn1nccc1C(=O)N[C@H](c1cn2nc(C[C@H]3C[C@@H](C(F)(F)F)CNC3=O)c(C3(C)CCOCC3)nc2n1)C1CCC(F)(F)CC1 [Compound 164, N-((1S)-(4,4-difluorocyclohexyl)(3-(4-methyltetrahydro-2H-pyran-4-yl)-2-(((3R,5R)-2-oxo-5-(trifluoromethyl)piperidin-3-yl)methyl)imidazo[1,2-b][1,2,4]triazin-6-yl)methyl)-1-ethyl-1H-pyrazole-5-carboxamide]
< 100 | 100 to 1000 | CCc1nc2nc([C@@H](NC(=O)c3ccnn3CC)C3CCC(F)(F)CC3)cn2nc1C[C@H]1C[C@@H](C(F)(F)F)CNC1=O [Compound 167, N-((1S)-(4,4-difluorocyclohexyl)(3-ethyl-2-(((3R,5R)-2-oxo-5-(trifluoromethyl)piperidin-3-yl)methyl)imidazo[1,2-b][1,2,4]triazin-6-yl)methyl)-1-ethyl-1H-pyrazole-5-carboxamide]
< 100 | 100 to 1000 | CCn1nccc1C(=O)N[C@H](c1cn2nc(C[C@H]3C[C@@H](C(F)(F)F)CNC3=O)c(CC3COC3)nc2n1)C1CCC(F)(F)CC1 [Compound 168, N-((1S)-(4,4-difluorocyclohexyl)(3-(oxetan-3-ylmethyl)-2-(((3R,5R)-2-oxo-5-(trifluoromethyl)piperidin-3-yl)methyl)imidazo[1,2-b][1,2,4]triazin-6-yl)methyl)-1-ethyl-1H-pyrazole-5-carboxamide]
< 100 | > 1000 | CCn1nccc1C(=O)N[C@H](c1cn2nc(C[C@H]3C[C@@H](C(F)(F)F)CNC3=O)c(C(C)(C)C3CCOCC3)nc2n1)C1CCC(F)(F)CC1 [Compound 169, N-((1S)-(4,4-difluorocyclohexyl)(2-(((3R,5R)-2-oxo-5-(trifluoromethyl)piperidin-3-yl)methyl)-3-(2-(tetrahydro-2H-pyran-4-yl)propan-2-yl)imidazo[1,2-b][1,2,4]triazin-6-yl)methyl)-1-ethyl-1H-pyrazole-5-carboxamide]
< 100 | 100 to 1000 | CCn1nccc1C(=O)N[C@H](c1cn2nc(C[C@H]3C[C@@H](C(F)(F)F)CNC3=O)c(CC3CCOC3)nc2n1)C1CCC(F)(F)CC1 (stereo partly drawn) [Compound 170, N-((1S)-(4,4-difluorocyclohexyl)(2-(((3R,5R)-2-oxo-5-(trifluoromethyl)piperidin-3-yl)methyl)-3-((tetrahydrofuran-3-yl)methyl)imidazo[1,2-b][1,2,4]triazin-6-yl)methyl)-1-ethyl-1H-pyrazole-5-carboxamide]
< 100 | 100 to 1000 | CCn1nccc1C(=O)N[C@H](c1cn2nc(C[C@H]3C[C@@H](C(F)(F)F)CNC3=O)c(CC3CCCO3)nc2n1)C1CCC(F)(F)CC1 (stereo partly drawn) [Compound 171, N-((1S)-(4,4-difluorocyclohexyl)(2-(((3R,5R)-2-oxo-5-(trifluoromethyl)piperidin-3-yl)methyl)-3-((tetrahydrofuran-2-yl)methyl)imidazo[1,2-b][1,2,4]triazin-6-yl)methyl)-1-ethyl-1H-pyrazole-5-carboxamide]
< 100 | 100 to 1000 | CCn1nccc1C(=O)N[C@H](c1cn2nc(C[C@H]3C[C@@H](C(F)(F)F)CNC3=O)c(CC3CCCCO3)nc2n1)C1CCC(F)(F)CC1 (stereo partly drawn) [Compound 172, N-((1S)-(4,4-difluorocyclohexyl)(2-(((3R,5R)-2-oxo-5-(trifluoromethyl)piperidin-3-yl)methyl)-3-((tetrahydro-2H-pyran-2-yl)methyl)imidazo[1,2-b][1,2,4]triazin-6-yl)methyl)-1-ethyl-1H-pyrazole-5-carboxamide]
100 to 1000 | > 1000 | CCn1nccc1C(=O)N[C@H](c1cn2nc(C[C@H]3C[C@@H](C(F)(F)F)CNC3=O)c(CC3COCCO3)nc2n1)C1CCC(F)(F)CC1 (stereo partly drawn) [Compound 173, N-((1S)-(3-((1,4-dioxan-2-yl)methyl)-2-(((3R,5R)-2-oxo-5-(trifluoromethyl)piperidin-3-yl)methyl)imidazo[1,2-b][1,2,4]triazin-6-yl)(4,4-difluorocyclohexyl)methyl)-1-ethyl-1H-pyrazole-5-carboxamide]
< 100 | < 100 | CCn1nccc1C(=O)N[C@H](c1cn2nc(C[C@H]3C[C@@H](C(F)(F)F)CNC3=O)c(CC3CCOCC3)nc2n1)[C@H]1CC[C@H](C)CC1 [Compound 179, 1-ethyl-N-((1S)-((1R,4S)-4-methylcyclohexyl)(2-(((3R,5R)-2-oxo-5-(trifluoromethyl)piperidin-3-yl)methyl)-3-((tetrahydro-2H-pyran-4-yl)methyl)imidazo[1,2-b][1,2,4]triazin-6-yl)methyl)-1H-pyrazole-5-carboxamide]
100 to 1000 | > 1000 | CCn1nccc1C(=O)N[C@H](c1cn2nc(C[C@H]3C[C@@H](C(F)(F)F)CNC3=O)c(N(C)C3COC3)nc2n1)C1CCC(F)(F)CC1 [Compound 180, N—((S)-(4,4-difluorocyclohexyl)(3-(methyl(oxetan-3-yl)amino)-2-(((3R,5R)-2-oxo-5-(trifluoromethyl)piperidin-3-yl)methyl)imidazo[1,2-b][1,2,4]triazin-6-yl)methyl)-1-ethyl-1H-pyrazole-5-carboxamide]
< 100 | > 1000 | O=C(N[C@H](c1cn2nc(C[C@H]3C[C@@H](C(F)(F)F)CNC3=O)c(N3CCOCC3)nc2n1)C1CCC(F)(F)CC1)OCc1cc(C(F)(F)F)on1 [Compound 181, (5-(trifluoromethyl)isoxazol-3-yl)methyl ((S)-(4,4-difluorocyclohexyl)(3-morpholino-2-(((3R,5R)-2-oxo-5-(trifluoromethyl)piperidin-3-yl)methyl)imidazo[1,2-b][1,2,4]triazin-6-yl)methyl)carbamate]
< 100 | < 100 | CCn1nccc1C(=O)N[C@H](c1cn2nc(C[C@H]3C[C@@H](C(F)(F)F)CNC3=O)c(C3CCC(F)(F)CC3)nc2n1)C1CCC(F)(F)CC1 [Compound 182, N-((1S)-(4,4-difluorocyclohexyl)(3-(4,4-difluorocyclohexyl)-2-(((3R,5R)-2-oxo-5-(trifluoromethyl)piperidin-3-yl)methyl)imidazo[1,2-b][1,2,4]triazin-6-yl)methyl)-1-ethyl-1H-pyrazole-5-carboxamide]
